≈ marks a conversion by molar mass, not a printed value. Calls of active or inactive are those of the source. The calls are words filed in the database; no cut-off is given here.
Legend:
[1] = molecular target: T1, Enoyl-[acyl-carrier-protein] reductase [NADPH] FabI (Staphylococcus aureus) (UniProt Q6GI75); assay: Inhibition of N-terminal his 6 tagged Staphylococcus aureus Fabi (1 to […] residues) expressed in Escherichia coli BL21 at 1 uM incubated for 30 mins in presence of NADPH by fluorescence based microplate reader analysis relative to control
T1 sequence (whole entry): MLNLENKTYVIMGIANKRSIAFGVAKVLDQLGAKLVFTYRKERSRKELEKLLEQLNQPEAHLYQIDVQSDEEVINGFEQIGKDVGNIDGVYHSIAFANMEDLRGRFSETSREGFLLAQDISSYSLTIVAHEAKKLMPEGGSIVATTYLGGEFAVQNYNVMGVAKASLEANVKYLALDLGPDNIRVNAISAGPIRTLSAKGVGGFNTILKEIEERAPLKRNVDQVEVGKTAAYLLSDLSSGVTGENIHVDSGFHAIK

[2] = Hemolytic activity in sheep erythrocytes assessed as hemolysis at 128 ug/ml incubated for 1 hr by microplate reader based analysis relative to control; format: toxicity, cell-based, Ovis aries, Erythrocyte; settings: at 128 µg/mL, read-out: Activity
Staphylococcus aureus [3] = assay: Bactericidal activity against […] Staphylococcus aureus ATCC33591 measured upto 24 hr by time-kill assay; format: functional, organism-based
Staphylococcus aureus [4] = assay: Antimicrobial activity against Staphylococcus aureus RN4220 harbouring pCM-sfgfp::fabi (promoter fabi) measured after 24 hrs by CLSI protocol based microdilution method; format: functional
[5] = Acute toxicity in female BALB/c mouse assessed as effect on UREA level in serum at 800 mg/kg, po measured after 14 days; format: organism-based; settings: in vivo, 336 h, time 14 day
[6] = Drug concentration in BALB/c mouse plasma at 1200 mg/kg, po measured after 1 hr by LC-MS analysis; format: ADME, organism-based
[7] = Half life in female Sprague-Dawley rat at 5 mg/kg, iv measured upto 24 hrs by LC-MS analysis; format: ADME, organism-based; settings: in vivo
[8] = Oral bioavailability in female Sprague-Dawley rat at 20 mg/kg measured upto 24 hrs by LC-MS analysis; format: ADME, organism-based; settings: in vivo
Staphylococcus aureus [9] = assay: In vivo antibacterial activity against methicilin-resistant Staphylococcus aureus ATCC33591 infected in BALB/c mouse skin infection model assessed as effect on body weight loss at 5 to 20 mg/kg administered daily for 4 days; format: functional, organism-based; settings: dose 5-20 mg/kg, time 4.0 day
Staphylococcus aureus [10] = assay: In vivo antibacterial activity against methicilin-resistant Staphylococcus aureus ATCC33591 infected in BALB/c mouse skin infection model assessed as adverse effect at 5 to 20 mg/kg administered daily for 4 days; format: functional, organism-based; settings: dose 5-20 mg/kg, time 4.0 day
Staphylococcus aureus [11] = assay: In vivo antibacterial activity against methicilin-resistant Staphylococcus aureus ATCC33591 infected in BALB/c mouse skin infection model assessed as decrease in lesion size at 5 mg/kg administered daily for 4 days (reference value: 43.4 mm2); format: functional; settings: time 4 day
Staphylococcus aureus [12] = assay: In vivo antibacterial activity against methicilin-resistant Staphylococcus aureus ATCC33591 infected in BALB/c mouse skin infection model assessed as decrease in lesion size at 10 mg/kg administered daily for 4 days (reference value: 43.4 mm2); format: functional; settings: time 4 day
Staphylococcus aureus [13] = assay: In vivo antibacterial activity against methicilin-resistant Staphylococcus aureus ATCC33591 infected in BALB/c mouse skin infection model assessed as decrease in lesion size at 20 mg/kg administered daily for 4 days (reference value: 43.4 mm2); format: functional; settings: time 4 day
Staphylococcus aureus [14] = assay: In vivo antibacterial activity against methicilin-resistant Staphylococcus aureus ATCC33591 infected in BALB/c mouse skin infection model assessed as reduction in bacterial load administered daily for 4 days; format: functional, organism-based; settings: dose 5-20 mg/kg, time 4.0 day
Staphylococcus aureus [15] = assay: In vivo antibacterial activity against methicilin-resistant Staphylococcus aureus ATCC33591 infected in BALB/c mouse skin infection model assessed as reduction in bacterial load at 5 mg/kg administered daily for 4 days; format: functional; settings: time 4 day
Staphylococcus aureus [16] = assay: In vivo antibacterial activity against methicilin-resistant Staphylococcus aureus ATCC33591 infected in BALB/c mouse skin infection model assessed as reduction in bacterial load at 10 mg/kg administered daily for 4 days; format: functional; settings: time 4 day
Staphylococcus aureus [17] = assay: In vivo antibacterial activity against methicilin-resistant Staphylococcus aureus ATCC33591 infected in BALB/c mouse skin infection model assessed as reduction in bacterial load at 20 mg/kg administered daily for 4 days; format: functional; settings: time 4 day
Staphylococcus aureus [18] = assay: In vivo antibacterial activity against methicilin-resistant Staphylococcus aureus ATCC33591 infected in BALB/c mouse skin infection model assessed as reduction in area of injury at 20 mg/kg administered daily for 4 days by H and E staining based analysis; format: functional, organism-based; settings: time 4.0 day
Staphylococcus aureus [19] = assay: In vivo antibacterial activity against methicilin-resistant Staphylococcus aureus ATCC33591 infected in BALB/c mouse skin infection model assessed as reduction in number of inflammatory cells at 20 mg/kg administered daily for 4 days by H and E staining based analysis; format: functional, organism-based; settings: time 4.0 day
Staphylococcus aureus [20] = assay: In vivo antibacterial activity against methicilin-resistant Staphylococcus aureus ATCC33591 infected in BALB/c mouse skin infection model assessed as restoration of cell morphology at 20 mg/kg administered daily for 4 days by H and E staining based analysis; format: functional, organism-based; settings: time 4.0 day
[21] = molecular target: T1, Enoyl-[acyl-carrier-protein] reductase [NADPH] FabI (Staphylococcus aureus); assay: Binding affinity to N-terminal his 6 tagged Staphylococcus aureus Fabi (1 to […] residues) expressed in Escherichia coli BL21 assessed as change in melting temperature at 80 uM incubated for 20 mins in presence of NADPH by differential scanning fluorescence assay
Staphylococcus aureus [22] = assay: In vivo antibacterial activity against methicilin-resistant Staphylococcus aureus ATCC33591 infected in BALB/c mouse skin infection model assessed as reduction in skin lesions at 10 mg/kg administered daily for 4 days (reference value: 51.6 mm2); format: functional; settings: time 4 day
Staphylococcus aureus [23] = assay: In vivo antibacterial activity against methicilin-resistant Staphylococcus aureus ATCC33591 infected in BALB/c mouse skin infection model assessed as log reduction in bacterial count at 10 mg/kg administered daily for 4 days; format: functional; settings: time 4 day
Staphylococcus aureus [24] = assay: In vivo antibacterial activity against methicilin-resistant Staphylococcus aureus ATCC33591 infected in BALB/c mouse skin infection model assessed as alleviation of skin lesions at 10 mg/kg administered daily for 4 days by H and E staining based analysis; format: functional, organism-based; settings: time 4.0 day
Staphylococcus aureus [25] = assay: In vivo antibacterial activity against methicilin-resistant Staphylococcus aureus ATCC33591 infected in BALB/c mouse skin infection model assessed as damaged tissue at 10 mg/kg administered daily for 4 days by H and E staining based analysis; format: functional, organism-based; settings: time 4.0 day
Staphylococcus aureus [26] = assay: In vivo antibacterial activity against methicilin-resistant Staphylococcus aureus ATCC33591 infected in BALB/c mouse skin infection model assessed as as appearance of inflammatory cell infiltrates at 10 mg/kg administered daily for 4 days by H and E staining based analysis; format: functional, organism-based; settings: time 4.0 day

SMILES: COc1c(Br)cccc1N1CC(c2nc3ccccc3n2C)CC1=O (centres undefined)
- inhibition [1]: 89.6%
- hemolysis at 1 h, 128 ug/ml [2]: 3.4%
- Activity (Staphylococcus aureus [3]): Dose-Dependent Effect
- MIC (Staphylococcus aureus [4]): 32 µg/mL (≈ 79.9 µM)
- Activity [5]: Non-Toxic
- concentration at 1 h [6]: 46.5 µg/mL
- t1/2 [7]: 1.1 h
- bioavailability [8]: 34.5%

SMILES: Cc1c(Br)cccc1N1CC(c2nc3ccccc3n2C)CC1=O (centres undefined)
- inhibition [1]: 88.9%
- hemolysis at 1 h, 128 ug/ml [2]: 5%
- Activity (Staphylococcus aureus [3]): Dose-Dependent Effect
- MIC (Staphylococcus aureus [4]): 32 µg/mL (≈ 83.3 µM)
- Activity [5]: Non-Toxic
- concentration at 1 h [6]: 72.1 µg/mL
- t1/2 [7]: 1.1 h
- bioavailability [8]: 86.1%
- Activity (Staphylococcus aureus [9]): inactive
- Activity (Staphylococcus aureus [10]): inactive
- Activity (Staphylococcus aureus [11]): 31.1 mm2
- Activity (Staphylococcus aureus [12]): 20.9 mm2
- Activity (Staphylococcus aureus [13]): 13 mm2
- Activity (Staphylococcus aureus [14]): Dose-Dependent Effect
- log(activity) (Staphylococcus aureus [15]): -1.8
- log(activity) (Staphylococcus aureus [16]): -4.5
- log(activity) (Staphylococcus aureus [17]): -6.2
- Activity (Staphylococcus aureus [18]): Active
- Activity (Staphylococcus aureus [19]): Active
- Activity (Staphylococcus aureus [20]): Active
- ΔTm [21]: 11.8 °C
- Activity (Staphylococcus aureus [22]): 27.5 mm2
- log(activity) (Staphylococcus aureus [23]): 4.9
- Activity (Staphylococcus aureus [24]): Active
- Activity (Staphylococcus aureus [25]): Active
- Activity (Staphylococcus aureus [26]): Active

From ChEMBL document CHEMBL5500393, “Discovery and Optimization of Novel SaFabI Inhibitors as Specific Therapeutic Agents for MRSA Infection” (J Med Chem, 2024)
